Test results taken from patent US20220226321A1, “INHIBITOR OF MNK FOR THE TREATMENT OF NEUROPATHIC PAIN” (Board of Regents, The University of Texas System, priority 2019, published 2022).
Read-outs that look alike come from different tables or passages of the source.

Test system: Nav1.8-positive nociceptors
Type: in vivo, mouse
[1] = input transcriptome of whole DRG, day 10

With `CC(=O)O[C@H]1C(=O)[C@@]2(C)[C@H]([C@H](OC(=O)c3ccccc3)[C@]3(O)C[C@H](OC(=O)[C@H](O)[C@@H](NC(=O)c4ccccc4)c4ccccc4)C(C)=C1C3(C)C)[C@]1(OC(C)=O)CO[C@@H]1C[C@@H]2O` [paclitaxel] the “Log2FC Mxd3” value (Nav1.8-TRAP after paclitaxel) was 1.905, the “Log2FC Ndufa4” value (Nav1.8-TRAP after paclitaxel) was 2.041 and the “Log2FC Ndufa8” value (Nav1.8-TRAP after paclitaxel) was 1.699. For the same compound, the “Log2FC Ndufaf7” value (Nav1.8-TRAP after paclitaxel) was 2.358, the “Log2FC Ndufs8” value (Nav1.8-TRAP after paclitaxel) was 2.837 and the “Log2FC Nedd9” value (Nav1.8-TRAP after paclitaxel) was 3.023. The “Log2FC Ngfr” value (Nav1.8-TRAP after paclitaxel) was 1.805, the “Log2FC Nipsna p3b” value (Nav1.8-TRAP after paclitaxel) was 2.057 and the “Log2FC Nme2” value (Nav1.8-TRAP after paclitaxel) was 3.66. For the same compound, the “Log2FC Ntrk1” value (Nav1.8-TRAP after paclitaxel) was 2.2, the “Log2FC Omg” value (Nav1.8-TRAP after paclitaxel) was 2.194 and the “Log2FC PIpp1” value (Nav1.8-TRAP after paclitaxel) was 2.874. The “Log2FC Pafah2” value (Nav1.8-TRAP after paclitaxel) was 2.283, the “Log2FC Pcbd2” value (Nav1.8-TRAP after paclitaxel) was 2.687 and the “Log2FC Pcdhb9” value (Nav1.8-TRAP after paclitaxel) was 2.519. For the same compound, the “Log2FC Pex11b” value (Nav1.8-TRAP after paclitaxel) was 3.628, the “Log2FC Pgrmc2” value (Nav1.8-TRAP after paclitaxel) was 1.76 and the “Log2FC Phpt1” value (Nav1.8-TRAP after paclitaxel) was 1.814. For the same compound, the “Log2FC Pnrc2” value (Nav1.8-TRAP after paclitaxel) was 1.668, the “Log2FC Polr1c” value (Nav1.8-TRAP after paclitaxel) was 2.731 and the “Log2FC Polr2j” value (Nav1.8-TRAP after paclitaxel) was 3.518. For the same compound, the “Log2FC Ppdpf” value (Nav1.8-TRAP after paclitaxel) was 2.038, the “Log2FC Ppp1ca” value (Nav1.8-TRAP after paclitaxel) was 2.094 and the “Log2FC Praf2” value (Nav1.8-TRAP after paclitaxel) was 2.335. The “Log2FC Prdx5” value (Nav1.8-TRAP after paclitaxel) was 2.174, the “Log2FC Prg4” value (Nav1.8-TRAP after paclitaxel) was 3.247 and the “Log2FC Prkrir” value (Nav1.8-TRAP after paclitaxel) was 2.096. For the same compound, the “Log2FC Prkx” value (Nav1.8-TRAP after paclitaxel) was 2.201, the “Log2FC Prm1” value (Nav1.8-TRAP after paclitaxel) was 1.732 and the “Log2FC Psma2” value (Nav1.8-TRAP after paclitaxel) was 2.07. The “Log2FC Ptdss1” value (Nav1.8-TRAP after paclitaxel) was 1.681, the “Log2FC Ptp4a3” value (Nav1.8-TRAP after paclitaxel) was 2.248 and the “Log2FC Ptprf” value (Nav1.8-TRAP after paclitaxel) was 1.742. For the same compound, the “Log2FC Pxdc1” value (Nav1.8-TRAP after paclitaxel) was 3.578, the “Log2FC Rad9a” value (Nav1.8-TRAP after paclitaxel) was 1.786 and the “Log2FC Rbc1” value (Nav1.8-TRAP after paclitaxel) was 1.841. For the same compound, the “Log2FC Rcn3” value (Nav1.8-TRAP after paclitaxel) was 2.085, the “Log2FC Rd54l” value (Nav1.8-TRAP after paclitaxel) was 4.965 and the “Log2FC Rft1” value (Nav1.8-TRAP after paclitaxel) was 3.183. The “Log2FC Rho” value (Nav1.8-TRAP after paclitaxel) was 5.352, the “Log2FC Rnase4” value (Nav1.8-TRAP after paclitaxel) was 2.356 and the “Log2FC Rnh1” value (Nav1.8-TRAP after paclitaxel) was 2.827. For the same compound, the “Log2FC Romo1” value (Nav1.8-TRAP after paclitaxel) was 2.002, the “Log2FC Rpl10a” value (Nav1.8-TRAP after paclitaxel) was 2.764 and the “Log2FC Rpl23a” value (Nav1.8-TRAP after paclitaxel) was 1.728. For the same compound, the “Log2FC Rpl37” value (Nav1.8-TRAP after paclitaxel) was 2.314, the “Log2FC Rpl39” value (Nav1.8-TRAP after paclitaxel) was 2.279 and the “Log2FC Rprm” value (Nav1.8-TRAP after paclitaxel) was 1.703. For the same compound, the “Log2FC Rps2” value (Nav1.8-TRAP after paclitaxel) was 2.442, the “Log2FC Rps29” value (Nav1.8-TRAP after paclitaxel) was 2.994 and the “Log2FC Rraga” value (Nav1.8-TRAP after paclitaxel) was 1.845. The “Log2FC Rtn4rl1” value (Nav1.8-TRAP after paclitaxel) was 2.407, the “Log2FC Rwdd1” value (Nav1.8-TRAP after paclitaxel) was 2.511 and the “Log2FC Sag” value (Nav1.8-TRAP after paclitaxel) was 1.948. The “Log2FC Scpep1” value (Nav1.8-TRAP after paclitaxel) was 2.923, the “Log2FC Sdhb” value (Nav1.8-TRAP after paclitaxel) was 3.236 and the “Log2FC Sec14I1” value (Nav1.8-TRAP after paclitaxel) was 2.129. The “Log2FC Serp2” value (Nav1.8-TRAP after paclitaxel) was 2.805, the “Log2FC Serpina3n” value (Nav1.8-TRAP after paclitaxel) was 2.549 and the “Log2FC Serping1” value (Nav1.8-TRAP after paclitaxel) was 3.002. For the same compound, the “Log2FC Shisa5” value (Nav1.8-TRAP after paclitaxel) was 2.137, the “Log2FC Slc3a2” value (Nav1.8-TRAP after paclitaxel) was 2.841 and the “Log2FC Slc6a15” value (Nav1.8-TRAP after paclitaxel) was 1.979. The “Log2FC Slc25a3” value (Nav1.8-TRAP after paclitaxel) was 2.641, the “Log2FC Slc30a6” value (Nav1.8-TRAP after paclitaxel) was 2.809 and the “Log2FC Slc48a1” value (Nav1.8-TRAP after paclitaxel) was 1.977. The “Log2FC Smdt1” value (Nav1.8-TRAP after paclitaxel) was 2.016, the “Log2FC Smug1” value (Nav1.8-TRAP after paclitaxel) was 4.754 and the “Log2FC Snrpg” value (Nav1.8-TRAP after paclitaxel) was 1.657. The “Log2FC Soat2” value (Nav1.8-TRAP after paclitaxel) was 4.066, the “Log2FC Sod1” value (Nav1.8-TRAP after paclitaxel) was 1.77 and the “Log2FC Sorbs1” value (Nav1.8-TRAP after paclitaxel) was 2.942. The “Log2FC Spink10” value (Nav1.8-TRAP after paclitaxel) was 3.169, the “Log2FC Synb” value (Nav1.8-TRAP after paclitaxel) was 3.1 and the “Log2FC Syngr3” value (Nav1.8-TRAP after paclitaxel) was 1.701. The “Log2FC Tagln3” value (Nav1.8-TRAP after paclitaxel) was 2.101, the “Log2FC Tdrp” value (Nav1.8-TRAP after paclitaxel) was 2.335 and the “Log2FC Tgm2” value (Nav1.8-TRAP after paclitaxel) was 2.739. The “Log2FC Thoc7” value (Nav1.8-TRAP after paclitaxel) was 2.07, the “Log2FC Timm8b” value (Nav1.8-TRAP after paclitaxel) was 2.815 and the “Log2FC Timm9” value (Nav1.8-TRAP after paclitaxel) was 1.838. The “Log2FC Tmem9b” value (Nav1.8-TRAP after paclitaxel) was 1.818, the “Log2FC Tmem14c” value (Nav1.8-TRAP after paclitaxel) was 1.657 and the “Log2FC Tmem53” value (Nav1.8-TRAP after paclitaxel) was 2.851. For the same compound, the “Log2FC Tmem106b” value (Nav1.8-TRAP after paclitaxel) was 1.891, the “Log2FC Tmem120b” value (Nav1.8-TRAP after paclitaxel) was 3.033 and the “Log2FC Tmem126a” value (Nav1.8-TRAP after paclitaxel) was 2.744. For the same compound, the “Log2FC Tmem129” value (Nav1.8-TRAP after paclitaxel) was 2.655, the “Log2FC Tnfaip8l3” value (Nav1.8-TRAP after paclitaxel) was 4.38 and the “Log2FC Tonsl” value (Nav1.8-TRAP after paclitaxel) was 1.762. For the same compound, the “Log2FC Tpgs2” value (Nav1.8-TRAP after paclitaxel) was 2.076, the “Log2FC Tram1” value (Nav1.8-TRAP after paclitaxel) was 2.174 and the “Log2FC Trap1” value (Nav1.8-TRAP after paclitaxel) was 2.447. The “Log2FC Trim11” value (Nav1.8-TRAP after paclitaxel) was 2.395, the “Log2FC Trpv1” value (Nav1.8-TRAP after paclitaxel) was 1.657 and the “Log2FC Tspan17” value (Nav1.8-TRAP after paclitaxel) was 2.337. The “Log2FC Tubb4b” value (Nav1.8-TRAP after paclitaxel) was 2.111, the “Log2FC Tyro3” value (Nav1.8-TRAP after paclitaxel) was 2.927 and the “Log2FC Ucp1” value (Nav1.8-TRAP after paclitaxel) was 3.795. For the same compound, the “Log2FC Ufsp2” value (Nav1.8-TRAP after paclitaxel) was 1.927, the “Log2FC Uqcrc2” value (Nav1.8-TRAP after paclitaxel) was 3.514 and the “Log2FC Uqcrq” value (Nav1.8-TRAP after paclitaxel) was 1.825. For the same compound, the “Log2FC Use1” value (Nav1.8-TRAP after paclitaxel) was 1.748, the “Log2FC Usmg5” value (Nav1.8-TRAP after paclitaxel) was 1.798 and the “Log2FC Vezf1” value (Nav1.8-TRAP after paclitaxel) was 1.933. The “Log2FC Wbp2” value (Nav1.8-TRAP after paclitaxel) was 1.689, the “Log2FC Wdr35” value (Nav1.8-TRAP after paclitaxel) was 2.68 and the “Log2FC ll15ra” value (Nav1.8-TRAP after paclitaxel) was 3.551. The “Log2FC mt-Nd1” value (Nav1.8-TRAP after paclitaxel) was 1.74, the “normalized TPM for the Rraga mRNA” value (TRAP fraction) was 3.6±0.51 and the “increase in number of normalized reads mapping to the Rraga mRNA” value (TRAP-seq after paclitaxel treatment) was 3.5 fold. For the same compound, the “number of genes down regulated” value (TRAP-seq data set) was 222, the “number of genes up-regulated” value (TRAP-seq data set) was 230 and the “Log2FC Med6” value (gene Med6, upregulated in Nav1.8-TRAP after paclitaxel) was 2.473. The “Log2FC Mien1” value (gene Mien1, upregulated in Nav1.8-TRAP after paclitaxel) was 1.847, the “Log2FC Mmd” value (gene Mmd, upregulated in Nav1.8-TRAP after paclitaxel) was 2.026 and the “Log2FC Mob1a” value (gene Mob1a, upregulated in Nav1.8-TRAP after paclitaxel) was 2.683. The “Log2FC Mob3b” value (gene Mob3b, upregulated in Nav1.8-TRAP after paclitaxel) was 2.179, the “Log2FC Ythdf2” value (gene Ythdf2, upregulated in Nav1.8-TRAP after paclitaxel) was 1.866 and the “Log2FC Ywhaq” value (gene Ywhaq, upregulated in Nav1.8-TRAP after paclitaxel) was 1.837. For the same compound, the “Log2FC Zfp386” value (gene Zfp386, upregulated in Nav1.8-TRAP after paclitaxel) was 3.022, the “Log2FC Zfp467” value (gene Zfp467, upregulated in Nav1.8-TRAP after paclitaxel) was 2.147 and the “Log2FC Zyx” value (gene Zyx, upregulated in Nav1.8-TRAP after paclitaxel) was 2.08. The “normalized TPM for the Rraga mRNA” value (input fraction) was 2.04±0.17, the “number of genes down-regulated” value [1] was 1 and the “number of genes up-regulated” value [1] was 4. The “Log2FC Stx2” value (mouse, in vivo) was 1.896.
